According to ChEMBL document CHEMBL1201862, “PubChem BioAssay data set” (2004):
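Values below derive from 48-hour exposures of cells grown in 96-well plates, with endpoints linearly interpolated between the two concentrations bracketing the appropriate inhibition level. At the GI50, growth is halved.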 Calls of active or inactive are those of the source. No stated cut-off is given here; in the data, active = GI50 up to about 1.1 µM and inactive = higher.

Columns and labels:
Test in all cases: NCI tumour cell line growth inhibition, 48 h
MDA-MB-435 = test system: MDA-MB-435
MDA-MB-231 = test system: MDA-MB-231
UO-31 = test system: UO-31
RPMI-8226 = test system: RPMI-8226
SF-268 = test system: SF-268
SK-MEL-28 = test system: SK-MEL-28
SK-MEL-2 = test system: SK-MEL-2
T47D = test system: T47D
NCI-H460 = test system: NCI-H460
KM12 = test system: KM12
OVCAR-8 = test system: OVCAR-8
SN12C = test system: SN12C
SNB-19 = test system: SNB-19
A549 = test system: A549
U-251 = test system: U-251
UACC-62 = test system: UACC-62
SW-620 = test system: SW-620
SR = test system: SR
NCI/ADR-RES = test system: NCI/ADR-RES
SF-539 = test system: SF-539

SMILES	GI50 (MDA-MB-435)	GI50 (MDA-MB-231)	GI50 (UO-31)	GI50 (RPMI-8226)	GI50 (SF-268)	GI50 (SK-MEL-28)	GI50 (SK-MEL-2)	GI50 (T47D)	GI50 (NCI-H460)	GI50 (KM12)	GI50 (OVCAR-8)	GI50 (SN12C)	GI50 (SNB-19)	GI50 (A549)	GI50 (U-251)	GI50 (UACC-62)	GI50 (SW-620)	GI50 (SR)	GI50 (NCI/ADR-RES)	GI50 (SF-539)
CCCn1cnc2c(SCc3ccc(Cl)cc3)nc(N)nc21	23.1 µM (inactive)	16.9 µM (inactive)	5.85 µM (inactive)	16.1 µM (inactive)	36.3 µM (inactive)	29 µM (inactive)	18.4 µM (inactive)	18.9 µM (inactive)	18.7 µM (inactive)	21.5 µM (inactive)	40.1 µM (inactive)	19.7 µM (inactive)	51.6 µM (inactive)	39.4 µM (inactive)	23.1 µM (inactive)	21.6 µM (inactive)	36.3 µM (inactive)	13.5 µM (inactive)	22.6 µM (inactive)	–
O=C(NC1CCCCC1)c1cc2ccccc2cc1O	29.2 µM (inactive)	61 µM (inactive)	32.4 µM (inactive)	17.7 µM (inactive)	46.1 µM (inactive)	49.3 µM (inactive)	23.3 µM (inactive)	42.6 µM (inactive)	26.1 µM (inactive)	34.2 µM (inactive)	26.2 µM (inactive)	–	31.1 µM (inactive)	–	44.2 µM (inactive)	27 µM (inactive)	35.2 µM (inactive)	38.7 µM (inactive)	17.7 µM (inactive)	24 µM (inactive)
COc1ccc(CC2C(=O)NC(C)C(=O)N(C)C3Cc4ccc(cc4)Oc4cc(ccc4O)CC(C(=O)NC(C)C(=O)NC(C)C(=O)N2C)N(C)C3=O)cc1 (stereo unspecified)	< 0.0001 µM (active)	< 0.0001 µM (active)	0.857 µM (active)	0.0175 µM (active)	–	0.0175 µM (active)	–	< 0.0001 µM (active)	0.0175 µM (active)	–	0.0191 µM (active)	0.0175 µM (active)	–	–	0.0175 µM (active)	0.0175 µM (active)	0.0177 µM (active)	< 0.0001 µM (active)	2.44 µM (inactive)	0.0175 µM (active)
CN(C)S(=O)(=O)Nc1nnc(S(N)(=O)=O)s1	> 100 µM (inactive)	> 100 µM (inactive)	> 100 µM (inactive)	> 100 µM (inactive)	> 100 µM (inactive)	> 100 µM (inactive)	> 100 µM (inactive)	64.3 µM (inactive)	> 100 µM (inactive)	> 100 µM (inactive)	–	–	> 100 µM (inactive)	> 100 µM (inactive)	> 100 µM (inactive)	> 100 µM (inactive)	> 100 µM (inactive)	> 100 µM (inactive)	> 100 µM (inactive)	> 100 µM (inactive)
O=C(CSC1=NCCN1)Nc1ccccc1	34.8 µM (inactive)	20.6 µM (inactive)	27.4 µM (inactive)	41.2 µM (inactive)	33.3 µM (inactive)	26.3 µM (inactive)	17.8 µM (inactive)	12.9 µM (inactive)	31.1 µM (inactive)	48 µM (inactive)	29.4 µM (inactive)	17.5 µM (inactive)	69.3 µM (inactive)	> 100 µM (inactive)	18.3 µM (inactive)	22.1 µM (inactive)	25.8 µM (inactive)	44.3 µM (inactive)	26.4 µM (inactive)	–
O=C(O)c1nc2ccccc2nc1Nc1ccc(Cl)c(Cl)c1	28.4 µM (inactive)	31.3 µM (inactive)	15.6 µM (inactive)	35.3 µM (inactive)	17.9 µM (inactive)	13 µM (inactive)	–	17.7 µM (inactive)	13.6 µM (inactive)	10.8 µM (inactive)	41.1 µM (inactive)	20.1 µM (inactive)	24.9 µM (inactive)	24.1 µM (inactive)	22.1 µM (inactive)	–	31.7 µM (inactive)	47.9 µM (inactive)	27.9 µM (inactive)	19.9 µM (inactive)
CCOC(=O)c1csc(NC(=O)CN(C)C)n1	> 100 µM (inactive)	> 100 µM (inactive)	> 100 µM (inactive)	> 100 µM (inactive)	> 100 µM (inactive)	> 100 µM (inactive)	> 100 µM (inactive)	> 100 µM (inactive)	> 100 µM (inactive)	> 100 µM (inactive)	> 100 µM (inactive)	–	> 100 µM (inactive)	> 100 µM (inactive)	> 100 µM (inactive)	> 100 µM (inactive)	> 100 µM (inactive)	> 100 µM (inactive)	> 100 µM (inactive)	> 100 µM (inactive)
[O-][S+](Nc1ccccc1)c1ccc(-c2ccccc2)cc1 (stereo unspecified)	> 100 µM (inactive)	> 100 µM (inactive)	> 100 µM (inactive)	> 100 µM (inactive)	> 100 µM (inactive)	> 100 µM (inactive)	–	11.5 µM (inactive)	> 100 µM (inactive)	58.6 µM (inactive)	45.8 µM (inactive)	> 100 µM (inactive)	> 100 µM (inactive)	> 100 µM (inactive)	> 100 µM (inactive)	47.4 µM (inactive)	> 100 µM (inactive)	> 100 µM (inactive)	> 100 µM (inactive)	> 100 µM (inactive)
CC(CO)CCNc1ncnc2c1ncn2CCC#N (stereo unspecified)	> 100 µM (inactive)	> 100 µM (inactive)	> 100 µM (inactive)	> 100 µM (inactive)	> 100 µM (inactive)	> 100 µM (inactive)	–	> 100 µM (inactive)	> 100 µM (inactive)	> 100 µM (inactive)	> 100 µM (inactive)	> 100 µM (inactive)	> 100 µM (inactive)	> 100 µM (inactive)	–	> 100 µM (inactive)	> 100 µM (inactive)	> 100 µM (inactive)	> 100 µM (inactive)	> 100 µM (inactive)
O=C(CC(=O)N(C(=O)c1ccccc1)c1ccc(Cl)cc1)N/N=C\c1cc(/N=N/c2ccccc2Cl)ccc1O	> 100 µM (inactive)	29.2 µM (inactive)	45.6 µM (inactive)	68.2 µM (inactive)	47.1 µM (inactive)	> 100 µM (inactive)	–	51.6 µM (inactive)	> 100 µM (inactive)	26.3 µM (inactive)	> 100 µM (inactive)	42.5 µM (inactive)	18.2 µM (inactive)	> 100 µM (inactive)	39 µM (inactive)	70.5 µM (inactive)	> 100 µM (inactive)	17.9 µM (inactive)	> 10 µM (inactive)	34.8 µM (inactive)
CC1ON2CCCC2[C@H]1C(=O)N1C2CC3CCC2(CS1(=O)=O)C3(C)C (stereo partly specified)	> 100 µM (inactive)	> 100 µM (inactive)	> 100 µM (inactive)	> 100 µM (inactive)	> 100 µM (inactive)	> 100 µM (inactive)	> 100 µM (inactive)	> 100 µM (inactive)	> 100 µM (inactive)	> 100 µM (inactive)	> 100 µM (inactive)	> 100 µM (inactive)	–	> 100 µM (inactive)	> 100 µM (inactive)	> 100 µM (inactive)	> 100 µM (inactive)	> 100 µM (inactive)	> 100 µM (inactive)	> 100 µM (inactive)
